One experiment has as its target PKA kinase (Homo sapiens, UniProt P17612). In words: Multiplex kinase profiling assay, 194-target pool, chemical labeling, PKA kinase. Type of experiment: biochemical. As to conditions: selectivity check. As to the method: (§1) A kinase profiling assay was carried out in four major steps, including the phosphorylation of protein target in a kinase enzyme reaction, labeling of phosphorylated target, hybridization of labeled target to the array, and detection of hybridized target on the array.
(§2) In the first step, phosphorylation was carried out in duplex format such that a mixture of two DNA-protein conjugate targets, one having an amino acid recognition sequence for p60c-src kinase and the other for PKA kinase, were co-incubated with p60c-src kinase and PKA kinase. The reaction was performed in 15 ul of 50 mM HEPES, containing 0.1 mM EDTA, 0.015% Brig 35, 0.15 mM ATP, 30 mM MgCl2, 0.1% 2-mercaptoethanol, pH 7.5.
(§3) Upon completion of the enzymatic reaction; the second step was carried out to detect phosphorylation using chemical labeling or antibody-based labeling. In the chemical labeling method, a solution of 5-(aminoacetamido)fluorescein (NH2-FAM, Molecular Probes, Oreg.) and EDC in MES buffer, pH 6.0, was added to the reaction mixture to a final concentration of 150 mM EDC and 200 μM of NH2-FAM. Where pre-treatment was used to block (i.e. protect) […] moieties, the pH of the reaction mixture was first adjusted to pH 4.5 and then pre-treated with 100 mM of EDC for 1.5 hours at 25° C. After the pre-treatment, the NH2-FAM and EDC were added and the reaction was allowed to proceed overnight. […]

Another experiment addresses p60c-src kinase (Homo sapiens, UniProt P12931). As to the kind of experiment: Multiplex kinase profiling assay, 194-target pool, chemical labeling, p60c-src kinase. As to conditions: chemical labeling with low pH EDC pre-treatment. Type of experiment: biochemical. As to the method:
as §1, §2, §3

p60c-src kinase, sequence (P12931 whole entry): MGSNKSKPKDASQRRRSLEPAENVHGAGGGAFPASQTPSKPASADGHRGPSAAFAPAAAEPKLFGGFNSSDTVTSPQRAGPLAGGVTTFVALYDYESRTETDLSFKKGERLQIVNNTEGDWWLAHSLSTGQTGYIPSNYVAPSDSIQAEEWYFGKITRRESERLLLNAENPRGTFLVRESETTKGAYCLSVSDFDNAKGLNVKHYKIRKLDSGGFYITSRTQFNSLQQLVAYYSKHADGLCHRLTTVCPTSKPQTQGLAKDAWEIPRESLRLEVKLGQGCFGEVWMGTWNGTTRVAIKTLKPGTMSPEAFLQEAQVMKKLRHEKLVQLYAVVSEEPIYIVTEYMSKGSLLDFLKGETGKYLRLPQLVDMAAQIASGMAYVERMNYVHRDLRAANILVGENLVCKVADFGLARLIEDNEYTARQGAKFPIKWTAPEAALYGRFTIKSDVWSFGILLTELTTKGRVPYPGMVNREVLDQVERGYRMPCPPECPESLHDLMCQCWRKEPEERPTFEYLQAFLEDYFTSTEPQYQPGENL

Consider `COc1cc2ncnc(Nc3ccc(Oc4ccccc4)cc3)c2cc1OC` [Src Kinase Inhibitor I], for which, on PKA kinase, the “effect on PKA kinase” value is “no detectable effect”. The “inhibition of p60c-src kinase” value on p60c-src kinase worked out at 85%.
